Data set [1] concerns the target glucagon-like peptide-1 (GLP-1) receptor (UniProt P43220). Kind of data set: competitive binding assay on cells.
The next data set concerns plaque inflammation. Kind of data set: F-18 FDG PET of plaque inflammation (carotid TBR). It counts as in vivo, human. On the procedure:
Materials and methods: We retrospectively analyzed F-18 FDG PET scans of patients treated with I-131 rituximab for the first time for relapsed or refractory CD20(+) B cell lymphoma. F-18 FDG PET scans were performed before (PET1), 5 days (PET2), and 1 m (PET3) after the administration of I-131 rituximab. […] TBRs measured in PET1, PET2, and PET3 were designated as TBR1, TBR2, and TBR3, respectively. Statistical analysis was performed using the Wilcoxon-test for comparison between the groups. In addition, we divided patients into 2 groups (patients with higher TBR1 versus equal to or lower TBR1 than the median value of TBR1) and compared TBRs on each PET dataset.

In the next data set the target is T1, HER2 (Homo sapiens, UniProt P04626).
T1 construct: flow cytometry in BT-474 (high HER2 density) and MCF-7 (low HER2 density); endogenous in cells; host or cells: BT-474 and MCF-7 cells
Kind of data set: Binding by flow cytometry. The note with it: BT-474 / MCF-7, cell line not stated. Background: A flow cytometer gives signals particle by particle.

In data set [2] the target is CXCR4 (UniProt P61073). Description: competitive binding assay on cells with a fluorescent ligand.
A further data set deals with fibrin (UniProt P02679). Kind of data set: binding of the radiolabelled pept.
Data set [3] in a line: In vitro stability in PBS and serum. It counts as in vitro ADME. As to conditions: 37 °C, after 5 h, starting radiochemical purity 94.3%.
Description: (§1) The in vitro stability of the corresponding radiocomplexes was determined in PBS and human serum at 37 °C. […] Cell viability (10^4 cells/well) and clonogenic assay (10^3 cells/well) was performed with [^213Bi]Bi-3p-C-NETA-TATE using the same cell line.
The subject of data set [4] is SSTR2 expressing cells (BON-1.SSTR2). Kind of data set: Cell binding and internalization. The note with it: BON-1.SSTR2, 60 min incubation. It counts as cell-based.
Description: as §1
In the next data set the test system is BON-1.SSTR2. Kind of data set: Clonogenic assay. The format is cell-based.
Data set [5] addresses human cholecystokinin-2 receptor (CCK2R) (human) (UniProt P32239). Description: radioligand binding.
Data set [6] has as its target rat cholecystokinin-2 receptor (CCK2R) (rat) (UniProt P30553). Description: radioligand binding.
The conditions of data set [7]: 37 °C, after 6 h.
Description: (§2) The stability of the radiolabeled peptide in human plasma and normal saline as well as partition coefficient (LogP) was determined. The effect of the peptide on platelet aggregation and the percent of binding radiopeptide to fibrin were studied.
The conditions of data set [8]: based on toxicity study in Wistar rats.
Description: For DOTA-MGS5, a toxicity study in Wistar rats was carried out in a GLP-compliant laboratory.
For data set [9], the target named is CXCR4 (UniProt P61073). Description: radioligand binding.

Broadly, the IC50 is the concentration that gives 50% inhibition. Read a high IC50 as lower potency.

Chain of glucagon-like peptide-1 (GLP-1) receptor (P43220 24-463): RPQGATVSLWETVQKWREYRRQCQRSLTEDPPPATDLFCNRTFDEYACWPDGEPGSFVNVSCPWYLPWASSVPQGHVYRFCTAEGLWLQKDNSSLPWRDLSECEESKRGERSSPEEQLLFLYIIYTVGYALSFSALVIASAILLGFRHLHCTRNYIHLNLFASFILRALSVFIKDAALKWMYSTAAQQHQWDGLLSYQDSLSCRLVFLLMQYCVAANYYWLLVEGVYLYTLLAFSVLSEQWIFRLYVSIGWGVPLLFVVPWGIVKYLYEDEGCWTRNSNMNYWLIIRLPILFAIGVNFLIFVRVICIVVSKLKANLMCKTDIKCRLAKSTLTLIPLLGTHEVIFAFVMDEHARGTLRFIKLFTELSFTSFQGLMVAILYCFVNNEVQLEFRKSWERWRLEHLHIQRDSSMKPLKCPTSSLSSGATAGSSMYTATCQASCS
Chain of CXCR4 (P61073 whole entry): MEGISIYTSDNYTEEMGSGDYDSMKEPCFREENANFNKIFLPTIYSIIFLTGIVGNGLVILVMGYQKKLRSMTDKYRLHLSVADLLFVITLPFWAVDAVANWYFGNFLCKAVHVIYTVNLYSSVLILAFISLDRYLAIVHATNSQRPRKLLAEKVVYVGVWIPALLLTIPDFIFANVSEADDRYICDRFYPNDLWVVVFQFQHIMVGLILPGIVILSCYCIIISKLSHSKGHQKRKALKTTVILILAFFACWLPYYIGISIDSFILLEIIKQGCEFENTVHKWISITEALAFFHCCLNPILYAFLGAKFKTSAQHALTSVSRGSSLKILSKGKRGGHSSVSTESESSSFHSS
Chain of rat cholecystokinin-2 receptor (CCK2R) (rat) (P30553 whole entry): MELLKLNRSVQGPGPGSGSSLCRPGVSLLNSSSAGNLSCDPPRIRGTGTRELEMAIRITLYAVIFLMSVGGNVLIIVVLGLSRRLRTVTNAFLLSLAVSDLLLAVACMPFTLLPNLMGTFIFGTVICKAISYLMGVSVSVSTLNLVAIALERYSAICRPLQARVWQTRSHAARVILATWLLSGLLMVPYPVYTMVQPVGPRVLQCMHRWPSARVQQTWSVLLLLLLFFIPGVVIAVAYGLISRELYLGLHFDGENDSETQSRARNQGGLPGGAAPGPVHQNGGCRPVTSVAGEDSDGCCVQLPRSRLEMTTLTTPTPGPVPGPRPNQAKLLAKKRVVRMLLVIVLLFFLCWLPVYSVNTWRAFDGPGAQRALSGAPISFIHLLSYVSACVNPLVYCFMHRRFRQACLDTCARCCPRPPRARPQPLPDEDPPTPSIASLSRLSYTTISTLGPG
Chain of fibrin (P02679 whole entry, looked up): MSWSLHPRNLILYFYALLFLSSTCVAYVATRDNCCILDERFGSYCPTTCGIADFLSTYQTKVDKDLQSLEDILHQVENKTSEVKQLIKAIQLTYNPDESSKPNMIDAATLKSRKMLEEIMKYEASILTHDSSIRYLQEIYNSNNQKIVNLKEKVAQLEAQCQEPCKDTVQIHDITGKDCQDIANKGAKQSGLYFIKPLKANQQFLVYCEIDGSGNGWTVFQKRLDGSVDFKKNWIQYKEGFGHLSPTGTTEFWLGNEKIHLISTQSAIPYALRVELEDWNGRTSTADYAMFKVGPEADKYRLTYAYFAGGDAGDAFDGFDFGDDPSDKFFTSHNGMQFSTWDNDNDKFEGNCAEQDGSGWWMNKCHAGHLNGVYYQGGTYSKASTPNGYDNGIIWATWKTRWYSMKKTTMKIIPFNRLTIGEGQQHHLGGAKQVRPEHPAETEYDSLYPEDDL
Chain of human cholecystokinin-2 receptor (CCK2R) (human) (P32239 whole entry): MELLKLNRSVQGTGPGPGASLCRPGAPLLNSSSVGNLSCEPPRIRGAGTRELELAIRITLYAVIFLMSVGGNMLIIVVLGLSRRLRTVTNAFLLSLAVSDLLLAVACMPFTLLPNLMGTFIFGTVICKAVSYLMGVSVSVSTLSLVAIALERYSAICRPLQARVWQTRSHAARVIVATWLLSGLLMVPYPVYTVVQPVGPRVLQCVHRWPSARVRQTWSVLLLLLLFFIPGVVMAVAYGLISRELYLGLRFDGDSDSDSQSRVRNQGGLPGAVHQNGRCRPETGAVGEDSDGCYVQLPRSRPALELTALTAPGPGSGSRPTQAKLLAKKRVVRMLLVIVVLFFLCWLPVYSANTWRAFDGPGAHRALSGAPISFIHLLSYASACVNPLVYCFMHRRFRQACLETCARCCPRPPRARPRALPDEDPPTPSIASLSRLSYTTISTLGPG
Description for HER2: Binding characteristics were determined using flow cytometry in BT-474 (high HER2 density) and MCF-7 (low HER2 density).
Description for platelet aggregation: as §2

“DOTA-exendin-4 (from UniProt P26349 48-87) (peptide; other documents disagree on this pair)”: in [1], the affinity is less than 11 nM.

Consider “I-131 rituximab: radioimmunotherapy for CD20(+) B cell lymphoma”, for which the TBR1 with plaque inflammation (all 32 patients, PET1 before I-131 rituximab, mean and SD) is 1.49 ± 0.28. In addition, the TBR2 in the data set with plaque inflammation (all 32 patients, PET2 5 days after, mean and SD, P = 0.008 vs TBR1) is reported as 1.36 ± 0.21. In the data set with plaque inflammation (all 32 patients, PET3 1 m after, mean and SD, P = 0.002 vs TBR1), this compound had a TBR3 of 1.35 ± 0.19. Also, the “mean TBR” value was found to be 1.69 in the data set with plaque inflammation (patients with higher TBR1 (n = 16), PET1); 1.46 in the data set on plaque inflammation (patients with higher TBR1 (n = 16), PET2, P = 0.001); 1.42 in the data set with plaque inflammation (patients with higher TBR1 (n = 16), PET3, P < 0.001); 1.29 in the data set with plaque inflammation (patients with lower TBR1 (n = 16), PET1); 1.26 with plaque inflammation (patients with lower TBR1 (n = 16), PET2); 1.29 in the data set on plaque inflammation (patients with lower TBR1 (n = 16), PET3).

As to NOTA-rituximab: control IgG, in the data set with HER2, the KD result is on record as “no binding”.

As for AlF-NOTA-(2×)DV1(c11sc12s) (peptide), in the data set with CXCR4 [2], the half-maximal inhibitory concentration (IC50) came out at 1.3 nM.

As to “NOTA-MI-exendin-4 (from UniProt P26349 48-87) (peptide)”, the affinity in data set [1] was less than 11 nM.

In the case of “NOTA-exendin-4 (from UniProt P26349 48-87) (peptide; other documents disagree on this pair)”, the affinity in data set [1] was less than 11 nM.

Regarding “DOTA-MI-exendin-4 (from UniProt P26349 48-87) (peptide)”, the affinity in data set [1] is less than 11 nM.

“HYNIC-Gly-Pro-Lys-Gly-Ala-Ala-Asp peptide” had an other with fibrin of 71.4%.

Turning to `C[C@@H](O)[C@H](NC(=O)[C@@H]1CSSC[C@H](NC(=O)[C@@H](Cc2ccccc2)NC(=S)Nc2ccc(CCCC(CN3CCN(CC(=O)O)CCN(CC(=O)O)CC3)N(CC(=O)O)CC(=O)O)cc2)C(=O)N[C@@H](Cc2ccc(O)cc2)C(=O)N[C@H](Cc2c[nH]c3ccccc23)C(=O)N[C@@H](CCCCN)C(=O)N[C@@H]([C@@H](C)O)C(=O)N1)C(=O)O` (stereo partly shown) [[^213Bi]Bi-3p-C-NETA-TATE, metal not drawn], the intact radiocomplex in data set [3] (PBS) came out at 90%. Further, the remaining at 5 h in data set [3] (human serum, read-out: intact radiocomplex) was 90%. In [4], the cell binding worked out at 3.3 ± 0.5% and the “internalized share of cell binding” value came out at 39.2%. In the data set with BON-1.SSTR2, the “activity required for cell surviving fraction of 0.1 (SF0.1)” value is reported as 0.1 MBq.

In the case of [^177Lu]Lu-DOTA-MGS5 (peptide), the other in data set [5] was 68%; in [6], 48.6%.

For the compound “HYNIC-Gly-Pro-Lys-Gly-Ala-Ala-Asp [HYNIC-GPLGAAD]”, the “stability in human plasma” value in data set [7] came to 95%. For the same compound, the “effect on platelet aggregation” value in the data set on platelet aggregation is on record as “no effect on platelet aggregation”.

Turning to `CCCC[C@@H](C(=O)N[C@@H](CC(=O)O)C(=O)N[C@@H](Cc1cccc2ccccc12)C(N)=O)N(C)C(=O)[C@H](Cc1c[nH]c2ccccc12)NC(=O)CNC(=O)[C@H](Cc1ccc(O)cc1)NC(=O)[C@H](C)NC(=O)[C@@H](CCC(=O)O)NC(=O)CN1CCN(CC(=O)O)CCN(CC(=O)O)CCN(CC(=O)O)CC1` [DOTA-MGS5], the “maximum dose defined for the first therapeutic use” value in data set [8] came out at 100 µg.

In the data set with CXCR4 [9], AlF-NOTA-DV1-k-(DV3) (peptide) came in with a total-bound fraction (u87.CXCR4 cells) of 6%. This compound displayed a concentration for half-maximal inhibition (IC50) with CXCR4 [2] of 5.3 nM.
